System: mice
Experiment: Marble Burying Test (model for OCSD including OCD)
Assay type: in vivo
Details: dose equieffective to 3 mg/kg of the hydrochloride (92% inhibition)
Procedure: A typical model for OCSD including OCD is the Marble Burying Test according to Y. Ichimaru, T. Egawa, A. Sawa, Jpn. J. Pharmacol. 1995, 68: 65-70.
The apparatus consists of an open cubic box with 25 clean glass marbles evenly spaced on sawdust. Individual mice are placed in the test box, and the number of glass marbles left uncovered after 20 minutes are counted. 1-[4-(5-cyanoindol-3-yl)butyl]-4-(2-carbamoyl-benzofuran-5-yl)-piperazine or one of its physiologically acceptable salts, in particular 1-[4-(5-cyanoindol-3-yl)butyl]-4-(2-carbamoyl-benzofuran-5-yl)-piperazine hydrochloride, following subcutaneous application inhibits mable burying in mice dose-dependently. For example, a dose of 3 mg/kg of 1-[4-(5-cyanoindol-3-yl)butyl]-4-(2-carbamoyl-benzofuran-5-yl)-piperazine hydrochloride nearly completely (92%) inhibits marble burying; equieffective doses of conventional serotonin reuptake inhibitors are e.g. 20 mg/kg for fluvoxamine or 17 mg/kg for fluoxetine and an equieffective dose of the 5-HT1A agonist ipsapirone is 10 mg/kg.

CNCCC(Oc1ccc(C(F)(F)F)cc1)c1ccccc1 (stereo not drawn) [fluoxetine]
equieffective dose for inhibition of marble burying: 17 mg/kg

COCCCC/C(=N\OCCN)c1ccc(C(F)(F)F)cc1 [fluvoxamine]
equieffective dose for inhibition of marble burying: 20 mg/kg

O=C1c2ccccc2S(=O)(=O)N1CCCCN1CCN(c2ncccn2)CC1 [ipsapirone]
equieffective dose for inhibition of marble burying: 10 mg/kg

Source: patent publication US7642261B2, “Use of 1-[4-(5-cyanoindol-3-yl)butyl]-4-(2-carbamoyl-benzofuran-5-yl)-piperazine and its physiologically acceptable salts” (Merck Patent GmbH, priority 2002, dated 2010)
